In one assay the test system is Aβ amyloid plaques. Put plainly: [3H]PIB competition autoradiography in postmortem human AD frontal cortex slices. The conditions noted are these: for effect on [3H]PIB binding: 1 μM; for GM/WM ratio of [3H]PIB binding: human AD frontal cortex; for displacement of [3H]PIB (words, discussion): FIG. 10 and 11; for effect on [3H]PIB binding level: GM and WM. It is filed as binding. The procedure: Post-mortem human AD frontal cortex sections (10 μm thick; human brain tissue obtained from Banner Sun Health Research Institute, Sun City, Ariz.) were preincubated in 10% alcohol PBS buffer for 10 minutes. The brain sections were placed in a glass chamber and incubated with [^3H]PIB (2 μCi/cc) in 10% alcohol PBS buffer, pH 7.4 at 37° C. for 1 h. The slices were then washed with cold 10% alcohol PBS buffer (2×3 mins), cold deionized water 1 min, respectively. The brain sections were air dried, exposed overnight on a phosphor film, and then placed on the Phosphor Autoradiographic Imaging System/Cyclone Storage Phosphor System (Packard Instruments Co). Regions of interest (ROIs) were drawn on the slices and the extent of binding of [^3H]PIB was measured with DLU/mm^2 using the OptiQuant acquisition and analysis program (Packard Instruments Co).
The Aβ plaque-α4β2* nAChR multi-agent was tested for binding to Aβ amyloid plaques in human postmortem AD brain frontal cortex slices labeled with [^3H]PIB (75-90 year olds, Braak score V-VI).
(Loss of bound radioactivity is the signal in a displacement assay; it reports binding, not function.)

The target in another assay is α4β2* nAChRs (Rattus norvegicus, UniProt P09483+P12390). The conditions noted are these: rat brain slices; for displacement of [3H]cytisine: 100 nM. The protocol: In Vitro Studies: Ex vivo rat brain slices were prepared at 10 μm thick using a Leica 1850 cryotome and used for [^3H]cytisine binding. […] The apposed phosphor screens were read and analyzed by OptiQuant acquisition and analysis program of the Cyclone Storage Phosphor System (Packard Instruments Co., Boston, Mass.). Region-of-interest of same size were drawn and analyzed on brain regions using OptiQuant software and binding of [^3H]cytisine measured in Digital Light Units/mm^2 (DLU/mm^2). Data was analyzed using following procedure: (a) the non-specific binding of [^3H]cytisine was subtracted for all samples; (b) the specific binding was normalized to 100% (no competitive ligand) and (c) the binding isotherms were fit to the Hill equation (KELL BioSoft software (v 6), Cambridge, U.K.).
Sequence of α4β2* nAChRs (P09483 31-630): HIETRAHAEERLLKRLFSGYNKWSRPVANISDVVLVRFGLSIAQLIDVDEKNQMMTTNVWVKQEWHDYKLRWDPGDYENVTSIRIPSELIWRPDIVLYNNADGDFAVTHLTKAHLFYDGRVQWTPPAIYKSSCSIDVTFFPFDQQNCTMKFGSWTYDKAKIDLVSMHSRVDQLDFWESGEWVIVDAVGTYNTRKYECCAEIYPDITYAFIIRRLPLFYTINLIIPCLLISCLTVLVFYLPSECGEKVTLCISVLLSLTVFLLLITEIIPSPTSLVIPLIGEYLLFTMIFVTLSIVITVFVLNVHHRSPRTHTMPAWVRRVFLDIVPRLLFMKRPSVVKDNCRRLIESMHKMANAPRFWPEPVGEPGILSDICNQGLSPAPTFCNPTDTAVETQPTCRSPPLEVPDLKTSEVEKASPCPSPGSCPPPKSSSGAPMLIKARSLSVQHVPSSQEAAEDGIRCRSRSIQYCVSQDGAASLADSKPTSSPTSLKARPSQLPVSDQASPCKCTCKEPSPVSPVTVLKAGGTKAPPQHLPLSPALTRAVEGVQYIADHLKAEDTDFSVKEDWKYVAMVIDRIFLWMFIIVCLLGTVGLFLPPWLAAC
Sequence of α4β2* nAChRs (P12390 25-500): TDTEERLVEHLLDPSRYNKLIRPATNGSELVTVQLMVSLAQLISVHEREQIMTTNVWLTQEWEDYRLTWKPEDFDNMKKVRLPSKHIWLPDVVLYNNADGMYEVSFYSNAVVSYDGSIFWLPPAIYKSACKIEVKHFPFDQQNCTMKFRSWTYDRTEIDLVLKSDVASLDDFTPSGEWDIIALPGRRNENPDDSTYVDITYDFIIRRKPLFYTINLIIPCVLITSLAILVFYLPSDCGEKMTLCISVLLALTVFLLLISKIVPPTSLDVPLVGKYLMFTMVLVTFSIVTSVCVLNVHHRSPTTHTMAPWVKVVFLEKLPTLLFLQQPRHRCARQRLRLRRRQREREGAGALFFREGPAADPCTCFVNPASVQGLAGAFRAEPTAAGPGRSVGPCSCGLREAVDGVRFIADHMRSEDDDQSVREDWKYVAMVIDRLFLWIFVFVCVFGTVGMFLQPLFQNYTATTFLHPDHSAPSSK
Nicotinic receptor binding: The Aβ plaque-α4β2* nAChR multi-agents were tested for their affinity to the α4β2* nAChRs using rat brain slices labeled with [^3H]cytisine. […] Three brain regions analyzed included thalamus, frontal cortex and subiculum.

For the next assay, the target named is T1, Amyloid β (Homo sapiens, UniProt P05067).
T1 construct: host or cells: AD patients (clinical trials)
Particulars: cited from earlier work.

[1] abbreviates: 1 μM test agent, control GM/WM approx. 2.
Setting [2] is: 10 μM test agent, control GM/WM approx. 3.

As to “5-(3-methoxy-4-propyloxycinnamate)-3-(2-(S)-pyrrolidinylmethoxy)pyridine [GKS-007]”, in the assay on Aβ amyloid plaques, the “effect on [3H]PIB binding” value was “some inhibitory effect”. In addition, the “GM/WM ratio of [3H]PIB binding” value with Aβ amyloid plaques (setting [1]) is reported as “no significant GM/WM ratio reduction”. Further, at α4β2* nAChRs, the “displacement of [3H]cytisine” value is recorded as “Displacement of significant amounts” and the “affinity at α4β2* nAChR sites” value is reported as “high affinity”.

Turning to “5-(3′-Ethyl 3-methoxy-4-propyloxycinnamate)-3-(2-(S)-pyrrolidinylmethoxy)pyridine [GKS-006]”, on α4β2* nAChRs, the “displacement of [3H]cytisine” value is reported as “Displacement of significant amounts” and the “affinity at α4β2* nAChR sites” value is given as “high affinity”.

In the case of `COc1cc(/C=C/C(=O)CC(=O)/C=C/c2ccc(O)c(OC)c2)ccc1O` [Curcumin, curcumin], the “GM/WM ratio of [3H]PIB binding” value in the assay with Aβ amyloid plaques (setting [2]) came to 1.5. The “reduction of [3H]PIB binding” value in the assay with Aβ amyloid plaques (10 μM, human frontal cortex) is 50%. In the assay with Aβ amyloid plaques (human frontal cortex), the “displacement of [3H]PIB (words, discussion)” value (“displacement of [3H]PIB” for short) is “significant displacement effect”.

In the case of `COc1cc(/C=C/C(=O)O)ccc1O` [FA, ferulic acid], the “effect on [3H]PIB binding” value with Aβ amyloid plaques is on record as “did not significantly affect the binding”. For the same molecule, the “GM/WM ratio of [3H]PIB binding” value in the assay on Aβ amyloid plaques (setting [1]) is on record as “approx. 2”; in the assay with Aβ amyloid plaques (setting [2]) it was 2. Moreover, the “effect on [3H]PIB binding level” value in the assay on Aβ amyloid plaques (10 μM) is “higher levels”. Besides, the “displacement of [3H]PIB” value with Aβ amyloid plaques (human frontal cortex) is recorded as “little displacement”.

As to `CNc1ccc(N=Nc2ccc(N(C)C)cc2)cc1` [TAZA, N,N,N′-trimethyl-4,4′-azodianiline], the “effect on [3H]PIB binding” value with Aβ amyloid plaques is on record as “significant displacement”. Moreover, the “GM/WM ratio of [3H]PIB binding” value with Aβ amyloid plaques (setting [1]) amounted to 1.3. In addition, in the assay on Aβ amyloid plaques (human frontal cortex), the “displacement of [3H]PIB” value is recorded as “greater than observed by curcumin”.

Fexofenadine curcuminate [CUR-FEX]: the “GM/WM ratio of [3H]PIB binding” value with Aβ amyloid plaques (setting [2]) is given as 1.96. Also, the “effect on [3H]PIB binding level” value in the assay on Aβ amyloid plaques (10 μM) was “lower binding”. Moreover, the “reduction of GM/WM ratio of [3H]PIB” value with Aβ amyloid plaques (human AD frontal cortex (FIG. 10, 10 μM)) is 35%. Also, the “displacement of [3H]PIB” value in the assay on Aβ amyloid plaques (human frontal cortex) is recorded as “largest displacement”.

Turning to “Fexofenadine-(3-methoxy-4-(1′-aminobutyryloxy)cinnamic acid [KD003]”, the “GM/WM ratio of [3H]PIB binding” value with Aβ amyloid plaques (setting [2]) is recorded as 2.4. Moreover, in the assay on Aβ amyloid plaques (10 μM), the “effect on [3H]PIB binding level” value is recorded as “higher levels”.

“Solanezumab: anti-amyloid monoclonal antibody”: in the assay with Amyloid β (large clinical trials), the “Aβ plaque load measured by PET imaging, before vs after antibody treatment” value is recorded as “did not change significantly”. In addition, the “Outcome (clinical)” value in the assay with Amyloid β (mild to moderate AD subjects) is given as “Did not improve”.
